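Protocol summary: plate cells (96-well), add compound at 5 concentrations, incubate 48 h, interpolate endpoints linearly. The concentration for full growth arrest is given as TGI.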

In PubChem BioAssay (NCI) one finds TGI data, which are given here for 13 compounds.

Holding throughout (test): NCI anticancer screen, dose series, 48 h
Experiment [1] has as its system TK-10 renal.
The subject of experiment [2] is A549 NSCLC.
Experiment [3] deals with SK-MEL-5 melanoma.
For experiment [4], the system named is COLO 205 colon.
Experiment [5] has as its system EKVX NSCLC.
The subject of experiment [6] is OVCAR-4 ovarian.
The subject of experiment [7] is NCI-H460 lung.
Experiment [8] relates to ACHN renal.
In experiment [9] the test system is IGROV1 ovarian.
Experiment [10] concerns SN12C renal.

With `Cc1cc(NC(=O)NC(=O)c2ccccc2NC(=O)CN(C)C)ccc1Oc1ncc(Br)cn1`, the TGI in experiment [1] was more than 100 µM; in experiment [2], more than 100 µM; in experiment [3], more than 100 µM; in experiment [4], 39.7 µM; in experiment [5], more than 100 µM; in [6] it was more than 100 µM. In addition, the TGI in experiment [7] is more than 95 µM; in experiment [8] it was more than 100 µM; in experiment [9], more than 100 µM; in [10], more than 100 µM.
In the case of `COc1cc2c(cc1O)C(Cc1ccc(OCc3ccccc3)c(OCc3ccccc3)c1)N(C(=O)NCCc1ccccc1)CC2` (stereo not given), the TGI in experiment [1], in experiment [2], in experiment [3], in [4], in experiment [5] and in experiment [6] was more than 100 µM in each case. Further, the TGI in [7], in [8], in experiment [9] and in experiment [10] was more than 100 µM throughout.
Turning to `BrC1(c2ccccc2)C[n+]2c(-c3ccccc3)cc(-c3ccccc3)cc2-c2ccccc21` (stereo not given), the TGI in [1] is 20.6 µM; in experiment [2], 9.77 µM; in [3], 0.366 µM; in [4], 0.318 µM; in experiment [5] it was 18.8 µM; in experiment [6], 28 µM. Besides, the TGI in experiment [7] was determined as 6.99 µM; in [8], 14 µM; in experiment [9] it was 5.14 µM; in experiment [10] it was 16.7 µM.
Take `CC(C)CNP(=O)(NCC(C)C)Oc1ccc(CC(NC(=O)OCc2ccccc2)C(=O)OCc2ccccc2)cc1` (stereo not given): the TGI in experiment [1] was more than 100 µM; in experiment [2], more than 100 µM; in experiment [3], 45.8 µM; in experiment [4], 35.4 µM; in [5], 77.2 µM; in [6], 36.5 µM. For the same compound, the TGI in experiment [7] was 33.4 µM; in [8], 30.6 µM; in experiment [9], more than 100 µM; in [10] it was 39.9 µM.
As for `COc1ccc(C2C(=O)c3ccc(OC)cc3OC2c2cccnc2)cc1` (stereo not given), the TGI in experiment [1], in experiment [2], in experiment [3], in experiment [4], in [5] and in [6] was more than 100 µM in each case. Moreover, the TGI in [7], in experiment [8], in [9] and in [10] was more than 100 µM each time.
As to `CCOC(=O)N1CCNCCN(C(=O)OCC)CCNCC1`, the TGI in [1], in experiment [2], in [3], in experiment [4], in experiment [5] and in [6] was more than 100 µM each time. Moreover, the TGI in [7], in experiment [8], in experiment [9] and in experiment [10] was more than 100 µM throughout.
Turning to `Cc1nnc(SCc2nc(C#N)c(C#N)nc2CSc2nnc(C)s2)s1`, the TGI was 16.3 µM in experiment [1]; more than 100 µM in experiment [2]; 29.2 µM in experiment [3]; 25.5 µM in [4]; 36.5 µM in experiment [5]; 31.5 µM in experiment [6]. Moreover, the TGI in experiment [7] is more than 59.2 µM; in experiment [8], 22.5 µM; in experiment [9] it was 33.5 µM; in [10] it was 38.2 µM.
Consider `COc1cc(C2c3cc4c(cc3[C@@H](Nc3ccc(F)cc3)C3COC[C@H]23)OCO4)cc(OC)c1O` (stereo not given in full), for which the TGI in experiment [1] was more than 25 µM; in experiment [2] it was 10.6 µM; in experiment [3] it was more than 25 µM; in experiment [4], more than 25 µM; in [5], more than 25 µM; in experiment [6], more than 25 µM. The TGI in [7] is 3.83 µM; in experiment [8] it was 6.21 µM; in experiment [9], more than 25 µM; in [10], 23.1 µM.
As to `CCNC(=S)N/N=C(/C)c1cccc(/C(C)=N\NC(=S)NCC)n1`, the TGI is 19.1 µM in experiment [1]; more than 82.9 µM in experiment [2]; 5.52 µM in experiment [3]; more than 23.5 µM in [4]; more than 52.7 µM in experiment [5]; more than 100 µM in experiment [6]. In addition, the TGI is 12.5 µM in experiment [7], more than 66.9 µM in experiment [8], more than 64 µM in experiment [9] and more than 65.6 µM in experiment [10].
With `Cc1cc2nc(N3C(=O)/C(=C/Cc4ccco4)N=C3c3ccccc3)sc2cc1C`, the TGI in experiment [1], in experiment [2], in experiment [3], in experiment [4], in experiment [5] and in experiment [6] was more than 100 µM each time. Further, the TGI in experiment [7] is more than 100 µM; in experiment [8], 96.3 µM; in experiment [9] it was more than 100 µM; in experiment [10], 87.9 µM.
`CC(C)OC(=O)C(NC(=O)C(CC(=O)OCc1ccccc1)NC(=O)OCc1ccccc1)NC(=O)C1C(C)(C)CCC1(C)C` (stereo not given): the TGI in experiment [1] turned out to be 34.5 µM; in experiment [2], 5.07 µM; in experiment [3], 27.1 µM; in experiment [4], 9.27 µM; in experiment [5] it was 12.2 µM; in experiment [6], 14.2 µM. Besides, the TGI in experiment [7] came to 31.6 µM; in experiment [8], 14.7 µM; in experiment [9], 64.2 µM; in experiment [10], 15.1 µM.
In the case of `CC1(C)CCC[C@@]2(C)C1CC[C@@]1(CO)O[C@H](C3=CC(=O)OC3O)C[C@H]12` (stereo not given in full), the TGI is 34.4 µM in [1]; more than 86.1 µM in [2]; 20.9 µM in experiment [3]; 23.2 µM in experiment [4]; 60.3 µM in [5]; 35.2 µM in experiment [6]. The TGI in experiment [7] is 38.8 µM; in [8], more than 53.5 µM; in [9] it was 42.5 µM; in experiment [10], 26.6 µM.
With `O=c1c2[nH]cnc2n(-c2ccccc2)c(=S)n1-c1ccccc1`, the TGI in experiment [1], in experiment [2], in experiment [3], in [4], in experiment [5] and in experiment [6] was more than 100 µM in each case. Further, the TGI in [7], in experiment [8], in experiment [9] and in [10] was more than 100 µM in each case.
